# Results reported in ChEMBL document CHEMBL4184300, “Design and characterization of bivalent compounds as potential neuroprotectants for Alzheimer's disease: Impact of the spacer on biological activity” (Bioorg Med Chem Lett, 2018).
# Calls of active or inactive are those of the source. The calls are words filed in the database; no cut-off is given here.
# Assays:
# Homo sapiens [1] = organism: Homo sapiens; test: Neuroprotective activity against tetracycline removal-induced cytotoxicity in human MC65 cells assessed as reduction in oxidative stress at 0.3 uM after 48 hrs by DCFH-DA dye based fluorescence assay; format: functional, cell-based
# [2] = Metal chelating activity assessed as Cu2+-compound complex formation at 50 uM after 10 mins by UV-Vis spectroscopic method
# [3] = Neuroprotective activity against tetracycline removal-induced cytotoxicity in human MC65 cells assessed as increase in cell viability after 72 hrs by MTT assay; format: functional, cell-based; conditions: MC65, 72 h
# [4] = Metal chelating activity assessed as Fe2+-compound complex formation at 50 uM after 10 mins by UV-Vis spectroscopic method
# [5] = Metal chelating activity assessed as Zn2+-compound complex formation at 50 uM after 10 mins by UV-Vis spectroscopic method
# Homo sapiens [6] = organism: Homo sapiens; test: Neuroprotective activity against tetracycline removal-induced cytotoxicity in human MC65 cells assessed as reduction in oxidative stress at 8 mM after 48 hrs by DCFH-DA dye based fluorescence assay; format: functional, cell-based
# N2a = test: Neuroprotective activity in mouse N2A cells assessed as induction of neurite outgrowth at 0.3 uM after 48 hrs by fluorescence microscopic analysis; format: functional, cell-based
# Homo sapiens [7] = organism: Homo sapiens; test: Neuroprotective activity against tetracycline removal-induced cytotoxicity in human MC65 cells assessed as reduction in oxidative stress at 32 uM after 48 hrs by DCFH-DA dye based fluorescence assay; format: functional, cell-based
SMILES,Activity (Homo sapiens [1]),Activity [2],EC50 [3],Activity [4],Activity [5],Activity (Homo sapiens [6]),Activity (N2a),Activity (Homo sapiens [7])
COc1cc(/C=C/C(=O)C(Cc2cn(CCCCC(=O)NCCCN3CCN(CCCNC(=O)CCN4CCN(CCCN[C@H]5CC[C@@]6(C)C(=CC[C@H]7[C@@H]8CC[C@H]([C@H](C)CCCC(C)C)[C@@]8(C)CC[C@@H]76)C5)CC4)CC3)nn2)C(=O)/C=C/c2ccc(O)c(OC)c2)ccc1O,Active,inactive,64.3 nM,inactive,inactive,–,–,–
COc1cc(/C=C/C(=O)C(Cc2cn(CCCCNC(=O)CCC(=O)NCCCN3CCN(CCCNCCN[C@H]4CC[C@@]5(C)C(=CC[C@H]6[C@@H]7CC[C@H]([C@H](C)CCCC(C)C)[C@@]7(C)CC[C@@H]65)C4)CC3)nn2)C(=O)/C=C/c2ccc(O)c(OC)c2)ccc1O,Active,inactive,40.6 nM,inactive,inactive,–,–,–
COc1cc(/C=C/C(=O)C(Cc2cn(CCNC(=O)CCC(=O)NCCCN3CCN(CCCNC(=O)CCN4CCN(CCCN[C@H]5CC[C@@]6(C)C(=CC[C@H]7[C@@H]8CC[C@H]([C@H](C)CCCC(C)C)[C@@]8(C)CC[C@@H]76)C5)CC4)CC3)nn2)C(=O)/C=C/c2ccc(O)c(OC)c2)ccc1O,Active,inactive,31.6 nM,inactive,inactive,–,–,–
CC(=O)N[C@@H](CS)C(=O)O,–,–,–,–,–,inactive,–,–
COc1cc(/C=C/C(=O)C(Cc2cn(CCC(=O)NCCCN3CCN(CCCNC(=O)CCC(=O)NCCCN4CCN(CCCNCCN[C@H]5CC[C@@]6(C)C(=CC[C@H]7[C@@H]8CC[C@H]([C@H](C)CCCC(C)C)[C@@]8(C)CC[C@@H]76)C5)CC4)CC3)nn2)C(=O)/C=C/c2ccc(O)c(OC)c2)ccc1O,Active,inactive,33.9 nM,inactive,inactive,–,–,–
COc1cc(/C=C/C(=O)C(Cc2cn(CCC(=O)NCCCN3CCN(CCCNCCN[C@H]4CC[C@@]5(C)C(=CC[C@H]6[C@@H]7CC[C@H]([C@H](C)CCCC(C)C)[C@@]7(C)CC[C@@H]65)C4)CC3)nn2)C(=O)/C=C/c2ccc(O)c(OC)c2)ccc1O,Active,inactive,23.9 nM,inactive,inactive,–,inactive,–
COc1cc(/C=C/C(=O)C(Cc2cn(CCCCNC(=O)CCC(=O)NCCCN3CCN(CCCNC(=O)CCN4CCN(CCCN[C@H]5CC[C@@]6(C)C(=CC[C@H]7[C@@H]8CC[C@H]([C@H](C)CCCC(C)C)[C@@]8(C)CC[C@@H]76)C5)CC4)CC3)nn2)C(=O)/C=C/c2ccc(O)c(OC)c2)ccc1O,Active,inactive,30.9 nM,inactive,inactive,–,–,–
COc1cc(/C=C/C(=O)C(Cc2cn(CCC(=O)NCCCN3CCN(CCCNC(=O)CCN4CCN(CCCN[C@H]5CC[C@@]6(C)C(=CC[C@H]7[C@@H]8CC[C@H]([C@H](C)CCCC(C)C)[C@@]8(C)CC[C@@H]76)C5)CC4)CC3)nn2)C(=O)/C=C/c2ccc(O)c(OC)c2)ccc1O,Active,inactive,33.7 nM,inactive,inactive,–,–,–
COc1cc(/C=C/C(=O)C(Cc2cn(CCNC(=O)CCC(=O)NCCCN3CCN(CCCNCCN[C@H]4CC[C@@]5(C)C(=CC[C@H]6[C@@H]7CC[C@H]([C@H](C)CCCC(C)C)[C@@]7(C)CC[C@@H]65)C4)CC3)nn2)C(=O)/C=C/c2ccc(O)c(OC)c2)ccc1O,Active,inactive,34.2 nM,inactive,inactive,–,–,–
COc1cc(/C=C/C(=O)C(Cc2cn(CCCCC(=O)NCCCN3CCN(CCCNC(=O)CCC(=O)NCCCN4CCN(CCCNCCN[C@H]5CC[C@@]6(C)C(=CC[C@H]7[C@@H]8CC[C@H]([C@H](C)CCCC(C)C)[C@@]8(C)CC[C@@H]76)C5)CC4)CC3)nn2)C(=O)/C=C/c2ccc(O)c(OC)c2)ccc1O,Active,inactive,94 nM,inactive,inactive,–,–,–
Cc1c(C)c2c(c(C)c1O)CCC(C)(C(=O)O)O2 (stereo not drawn),–,–,–,–,–,–,–,Active
COc1cc(/C=C/C(=O)C(Cc2cn(CCCCC(=O)NCCCN3CCN(CCCNCCN[C@H]4CC[C@@]5(C)C(=CC[C@H]6[C@@H]7CC[C@H]([C@H](C)CCCC(C)C)[C@@]7(C)CC[C@@H]65)C4)CC3)nn2)C(=O)/C=C/c2ccc(O)c(OC)c2)ccc1O,Active,inactive,21.5 nM,inactive,inactive,–,–,–
